Columns and labels:
[1] = tested on: OPM-2 multiple myeloma cells; assay: Cell Titre Glo viability, EZH2 inhibitor and lenalidomide matrix, OPM-2; format: cell-based; conditions: Inhibitor 1 alone, FIG. 3E
Method: (§1) For all these experiments estimating the combinatorial response between EZH2 inhibitor and lenalidomide, cells were pre-treated with 8 different doses of EZH2 inhibitor for 8 days (Cells were split after 4 days and plated onto EZH2 inhibitor containing plates for an additional 4 days). After pre-treatment, cells were split and seeded onto EZH2 inhibitor and lenaldomide containing plates (compounds plated in a matrix format). Viability was assessed using Cell Titre Glo after 4 days of co-treatment.
(§2) Data are represented as the average percentage of cells in drug-treated wells as compared to DMSO-treated wells from independent duplicate experiments (i and ii). To assess synergy, the data was analyzed in a number of ways including calculation of combination index, bliss independence score and Loewe excess score. […] Data are represented as the mean of independent duplicate experiments ±s.d.

[2] = tested on: KMS-27 multiple myeloma cells; assay: Cell Titre Glo viability, EZH2 inhibitor and lenalidomide matrix, KMS-27; format: cell-based; conditions: Inhibitor 1 alone, FIG. 4E
Method: as §1, §2

[3] = tested on: OPM-2 subcutaneous xenograft; assay: OPM-2 subcutaneous xenograft combination experiment (lenalidomide, dexamethasone); format: in vivo, BALB/C nude mouse
Method: (§3) The experiment was carried out to assess the impact of Inhibitor 1 and lenalidomide in combination. Inhibitor 1 was dosed twice daily at 200 mg/kg, administered subcutaneously (200 mpk SC BID) and lenalidomide was dosed intraperitoneally once a day at 25 mg/kg (25 mpk IP QD) for the course of the entire study. Tumor volume was plotted as a function of time. Data are represented as the mean tumor volume per cohort and time point ±s.d. Bodyweight was assessed for vehicle and compound-treated animals for the experiment described in FIG. 6A. […] Data are represented as described in FIG. 6A. Vehicle and compound-treated tumors were collected at the end of the study and analyzed for global H3K27me3 and total H3 levels using an MSD ELISA assay.
Tumor volume was plotted as a function of time.

H3K27me3 [4] = assay: MSD ELISA of global H3K27me3 and total H3 in OPM-2 tumors (lenalidomide study); format: in vivo, BALB/C nude mouse; conditions: end of study, total H3 as normalizer; Inhibitor 1 vs vehicle control, combination vs lenalidomide alone; FIG. 6C
Method: as §3
Total H3 was used as a normalizer. Data are represented as the mean of data from 4 subjects±s.e.m.

H3K27me3 [5] = assay: MSD ELISA of global H3K27me3 and total H3 in OPM-2 tumors (Panobinostat study); format: in vivo, BALB/C nude mouse; conditions: Inhibitor 1 200 mpk SC BID vs vehicle control, end of study
Method: FIG. 11A is an in vivo combination experiment using an OPM-2 subcutaneous xenograft BALB/C nude mouse model (n=8 per cohort). The experiment was carried out to assess the impact of Inhibitor 1 and Panobinostat in combination. Inhibitor 1 was dosed twice daily at 200 mg/kg administered subcutaneously (200 mpk SC BID) and Panobinostat was dosed intraperitoneally once a day. Panobinostat was dosed at 5 mg/kg QD (DO-D4); 2.5 mg/kg QD (D7-D9, D13, D17 and D19), the dose and frequency of dosing was reduced to manage the toxicity effects. Tumor volume was plotted as a function of time. Data are represented as the mean tumor volume per cohort and time point±s.d. Bodyweight was assessed for vehicle and compound-treated animals for the experiment described in FIG. 11B. Data are represented as described in FIG. 11C. Vehicle and Inhibitor 1-treated tumors were collected at the end of the study and analyzed for global H3K27me3 and total H3 levels using an MSD ELISA assay. […] Data are represented as the mean of data from 4 subjects±s.e.m.

[6] = tested on: 19 multiple myeloma cell lines; assay: Combination with standard of care agents in multiple myeloma cell lines; format: cell-based; conditions: FIG. 16
Text: FIG. 16 summarizes the synergies observed between various standard of care agents as described above in 19 multiple myeloma cell lines.

KARPAS-422 xenograft = conditions: mouse, in vivo, po, 100 mg/kg
Method: Tumor volume measurements were recorded at indicated days post initial dose.* CHOP: Cyclophosphamide, 40 mg/kg, i.v.; doxorubicin, 3.3 mg/kg, i.v.; vincristine, 0.5 mg/kg, i.v.; and prednisone, 0.2 mg/kg, every day for 5 days, p.o.

SMILES	effect of single agent on cell viability [1]	effect of single agent on cell viability [2]	single agent activity in xenograft model ([3]; Inhibitor 1 200 mpk SC BID alone)	effect on in vivo anti-tumor activity of dexamethasone ([3]; OPM-2 xenograft, FIG. 13)	levels of H3K27me3 in tumors (H3K27me3 [4])	levels of H3K27me3 in tumors (H3K27me3 [5])	combinatorial activity with standard of care agents [6]	adverse effects / toxicity (KARPAS-422 xenograft)
CCS(=O)(=O)N1CCC([C@@H](C)n2c(C)c(C(=O)NCc3c(OC)cc(C)[nH]c3=O)c3ccccc32)CC1 [Inhibitor 1]	dose-dependent effect	dose-dependent effect	little single agent activity	increases	marked reduction	marked reduction	broadly combines with various different standard of care agents	
COc1cc(C)[nH]c(=O)c1CNC(=O)c1c(C)n(C(C)C2CCN(CC(F)(F)F)CC2)c2ccccc12 (stereo not drawn) [Inhibitor 3]								did not show any adverse effects and did not add to CHOP toxicity
Nc1cccc2c1CN(C1CCC(=O)NC1=O)C2=O (stereo not drawn) [Lenalidomide, lenalidomide, reference compound]					did not affect			
